Experimental data published in US3960862A, “1,3-Diazacycloalkeno-[1,2,d]-benzo-[f-]-1,3,4-thiadiazepines” (BASF Aktiengesellschaft, priority 1973, dated 1976).

What was measured:
central nervous system = test: behavior of animals treated with the compound; design: species or system mice; settings: mouse, in vivo
[1] = pharmacological screening (blood pressure, sympathomimetric and central nervous system effects; analgesic, spasmolytic, anti-inflammatory, broncholytic properties); settings: in vivo
[2] = test system: phenylquinone-induced writhing reactions in mice; test: writhing test on mice (phenylquinone i.p.), peroral application; type: in vivo; settings: for ΣR x ± sx (frequency of writhing reactions) / % effect (Decrease in the writhing reactions): n = 10, mice
Method: In this test p-benzoquinone (phenylquinone) in a 0.02% aqueous solution in a volume of 10 ml/kg of body weight i.p. serves to initiate pain. The typical writhing reactions which occur after a certain latency period are recorded in their frequency; decrease in the writhing frequency is evaluated as analgesic effect. The following Table indicates the numerical connection between dosage and effect after peroral application of the active ingredient.
^o T-test for independent random samples, bilateral questioning, significant down to 0.05, below 0.001 not given. n = number of test animals. The values are mean values ± mean error of the mean value.

[3] = effective dose compared with range of toxic doses; settings: in vivo

Compound	behavior of treated animals (central nervous system)	pharmacological effect, particularly analgesic properties [1]	ΣR x ± sx (frequency of writhing reactions) ([2]; 4.64 mg/kg peroral)	% effect (Decrease in the writhing reactions) ([2]; 4.64 mg/kg peroral, P <0.02)	ΣR x ± sx (frequency of writhing reactions) ([2]; 10 mg/kg peroral)	% effect (Decrease in the writhing reactions) ([2]; 10 mg/kg peroral, P <0.002)	ΣR x ± sx (frequency of writhing reactions) ([2]; 21.5 mg/kg peroral)	% effect (Decrease in the writhing reactions) ([2]; 21.5 mg/kg peroral, P <0.001)	ΣR x ± sx (frequency of writhing reactions) ([2]; 46.4 mg/kg peroral)	% effect (Decrease in the writhing reactions) ([2]; 46.4 mg/kg peroral, P <0.001)	ΣR x ± sx (frequency of writhing reactions) ([2]; 100 mg/kg peroral)	% effect (Decrease in the writhing reactions) ([2]; 100 mg/kg peroral, P <0.001)	ΣR x ± sx (frequency of writhing reactions) ([2]; 215 mg/kg peroral)	% effect (Decrease in the writhing reactions) ([2]; 215 mg/kg peroral, P <0.001)	ED50 ([2]; Mus musculus, po, peroral application, mice, from regression line)	effective dose relative to toxic doses [3]
O=[N+]([O-])c1cccc(C2=NN3CCCN=C3c3ccccc3S2)c1 [Example 18, Tetrahydropyrimidino-[1,2-d]-benzo-[f]-2-(3-nitrophenyl)-1,3,4-thiadiazepine]	consistent with a central nervous system depressant action	singled out for their pharmacological effect, particularly their analgesic properties	14.7 ± 2.1	28.1 ± 10.3%	12.7 ± 2.4	37.9 ± 11.8%	10.4 ± 1.9	49.1 ± 9.4%	8.9 ± 1.5	56.5 ± 7.2%	6.2 ± 1.7	69.7 ± 8.4%	0.8 ± 0.8	96.1 ± 3.9%	21.6 mg/kg	much below the range of toxic doses
O=[N+]([O-])c1cccc(C2=NN3CCN=C3c3ccccc3S2)c1 [Example 4, Imidazolino-[1,2-d]-benzo-[f]-2-(3-nitrophenyl)-1,3,4-thiadiazepine]	–	singled out for their pharmacological effect, particularly their analgesic properties	–	–	–	–	–	–	–	–	–	–	–	–	–	–
